Values quoted from earlier work, collected in patent US20180177700A1, “HAIR REMOVAL COMPOSITIONS AND METHODS” (priority 2016, published 2018).
Counter-ions that a name gives are not always drawn.

What was measured:
body hair = settings: all different types of body hair (scalp, facial, axillary, pubic, leg)
[1] = topical, 24 weeks, over 594 patients, versus placebo

| SMILES | hair loss induced (body hair) [%] | time after drug application at which hair growth returned to baseline (transient inhibition) (unwanted facial hair; after the drug application) | patients with "Clear" physician reported change in unwanted facial hair (unwanted facial hair; [1]) [%] | patients with "Improved" physician reported change in unwanted facial hair (unwanted facial hair; [1]) [%] | patients with "Marked" physician reported change in unwanted facial hair (unwanted facial hair; [1]) [%] |
| --- | --- | --- | --- | --- | --- |
| CS(=O)(=O)OCCCCOS(C)(=O)=O [busulfan] | ~100 |  |  |  |  |
| NCCCC(N)(C(=O)O)C(F)F (centres unmarked) [eflornithine hydrochloride] |  | eight | 5 | 26 | 27 |
